Conditions in one data set: not given
What is called logP is a log measure of how a compound divides between an organic and an aqueous phase. Read a low logP as lower lipophilicity. Take `O=C(O)c1ccc(F)cc1`: the logP is 1.99.
`O=C(O)c1cccc(I)c1` came in with a logP of 3.
As to `Oc1ccc(I)cc1`, the lipophilicity (logP) is 2.82.

For the next data set the following is noted: pH 1.0.
By logD is commonly meant lipophilicity at a set pH, counting ionised and neutral species. Regarding `O=C(O)c1cccc(Cl)c1`, the logD is 2.51.
Turning to `Oc1cccc(Br)c1`, the logD amounted to 2.59.

Still in this data set, the particulars now being: pH 13.0.
As to `Nc1ccc(Cl)cc1`, the logD was 1.8.
In the case of `Nc1cccc([N+](=O)[O-])c1`, the logD was determined as 1.43.
`Nc1cccc(I)c1` returned a logD of 2.86.
Still for that read-out and setting: in the case of `Nc1ccc(Br)cc1` it was 2.
On to `Cc1ccccc1N`, for which the logD is 1.44.
The compound `Cc1cccc(N)c1` displayed a logD of 1.49.

(Values after the SangsterLogP compilation.)
